Results taken from patent publication US7745417B2, “Nucleosides or nucleotides having novel unnatural bases and use thereof” (RIKEN, priority 2002, dated 2010).

Tests used:
T7 RNA polymerase [1] = molecular target: T1, T7 RNA polymerase (Escherichia phage T7, UniProt P00573); details: 0.25 mM triphosphate; product of 100 nucleotides
Description: (§1) The reaction composition of T7 transcription may be the same as described in Ohtsuki et al., 2001. Details are as follows: 40 mM Tris-HCl (pH 8.0), 5 mM DTT, 24 mM MgCl2, 2 mM spermidine, 0.01% TritonX-100, 10 mM GMP, 1 mM NTPs, 0-0.25 mM 5IyTP, 0.2 μl/μl template DNA, and 2.5 U/μl T7 RNA polymerase (TaKaRa). After enzymatic reaction at 37° C. for 6 hours, each reaction product was purified by electrophoresis on an 8% polyacrylamide-7M urea gel.

T7 RNA polymerase [2] = molecular target: T1, T7 RNA polymerase; details: T7 transcription
Description: as §1
When T7 transcription reaction is performed in the presence of [α-^32P]ATP or [α-^32P]GTP, a nucleoside 3′-phosphate (Np) 5′-terminal to A or G is labeled with ^32P. Each gel-purified RNA was completely digested into Np by RNase T2 (Sigma). If 5Iy is introduced at residue 84 or 92, the nucleoside 3′-phosphate of 5Iy (5IyTp) is labeled with ^32P via [α-^32P]GTP, while if 5Iy is introduced at residue 87, 5IyTp is labeled via [α-^32P]ATP (FIG. 5, FIG. 6-b). For base composition analysis of 5Iy-containing RNAs, each of the completely digested products was separated by 2D-TLC and determined for each nucleotide content.
More specifically, to completely digest RNA, 0.75 μl RNase T2 solution (5 units/μl; 100 mM NaOAc pH 4.5, 10% glycerol) was added to 4.25 μl aqueous solution containing the labeled RNA and a 0.25 OD E. coli-derived tRNA mixture (Sigma), followed by overnight enzymatic reaction at 37° C. A part of the reaction solution was spotted onto a 10 cm×10 cm TLC plate (Funacell SF; Funakoshi Co., Ltd., Japan) and developed in two dimensions. Developing solutions for the first and second dimensions are isobutyric acid/ammonia/water (66:1:33 by volume) and 2-propanol/hydrochloric acid/water (70:15:15 by volume), respectively. The developed spots were detected and quantified using a bioimaging analyzer (BAS2500, Fuji Photo Film Co., Ltd., Japan).
Each value was calculated from the following equation. The theoretical numbers of nucleotides are in parentheses.

T7 RNA polymerase [3] = molecular target: T1, T7 RNA polymerase; details: for incorporation into RNA opposite s in the template: 1 mM, in competition with natural NTPs; for efficiency of transcription reaction: full-length 17-mer RNA, transcription using natural base pairing set to 100%; for misincorporation opposite natural nucleotides in the template: s-free control template
Description: The T7 transcription reaction was performed on 20 μl scale. The composition of T7 transcription is as follows: 40 mM Tris-HCl (pH 8.0), 5 mM DTT, 8 mM MgCl2, 2 mM spermidine, 0.01% TritonX-100, 10 mM GMP, 1 mM NTPs (N=A, G, C, U, Bio-yTP, Bio^2-yTP), 2 μCi [α-^32P]ATP, 0.5 μM double-stranded DNA, and 2.5 U/μl T7 RNA polymerase (TaKaRa) [Ohtsuki et al., 2001]. After enzymatic reaction at 37° C. for 3 hours, each reaction solution was supplemented with an equal volume of a 10M urea-containing TPE solution and warmed at 75° C. for 3 minutes to stop the reaction. Aliquot parts of the reaction solutions were then electrophoresed on a 20% polyacrylamide-7M urea gel and the [α-^32P]ATP-labeled reaction products were analyzed with a bioimaging analyzer (BAS2500, Fuji Photo Film Co., Ltd., Japan).

Raf-1 RBD (GST-RBD) [4] = molecular target: T2, Raf-1 RBD (GST-RBD) (Homo sapiens, UniProt P04049 P04049:51-131); experiment: EMSA; binding to 2 GST-RBD lower than XL; details: tags: GST fusion, expressed in E. coli; 2 per XL dimer), stated; label: 32P 5'-end
Description: (§2) The product (XL) obtained by crosslinking reaction an equal concentration (0.1 µM) mixture of 9A(5Iy87) and Raf-1 RBD was purified from a gel and analyzed for binding between XL and GSTRBD by gel shift assay. As a control of RNA 9A dimer, RNA 9A molecules were also linked in tandem to newly prepare RNA 9A×2 (200 nucleotides in total length), followed by gel shift assay. RNA 9A×2 is an RNA molecule of 200 nucleotides in total length that has two essential regions of RNA 9A (residues 1-80) in its molecule. It was prepared by transcription reaction using T7 RNA polymerase (Epicentre) and subcloned into vector pCR®II-TOPO (Invitrogen).
(§3) Electrophoresis was performed at room temperature and at a constant voltage (150 V) for about 2 hours (gel size: 16 cm×16 cm×1 mm). The composition of electrophoresis buffer is as follows: 12.5 mM Tris and 125 mM Glycine. Each electrophoresed gel was dried using a gel dryer and analyzed with a bioimaging analyzer (BAS2500, Fuji Photo Film Co., Ltd., Japan).

B-Raf RBD (GST-RBD) = B-Raf RBD (GST-RBD) (Homo sapiens, UniProt P15056 P15056:149-226); experiment: filter; 2 nM RNA; binds B-Raf RBD but does not inhibit B-Raf RBD/Ras interaction; details: tags: GST fusion, expressed in E. coli; label: 32P 5'-end; pseudoknot (estimated)
Sequence of B-Raf RBD (GST-RBD) (P15056 149-226, one chain of several): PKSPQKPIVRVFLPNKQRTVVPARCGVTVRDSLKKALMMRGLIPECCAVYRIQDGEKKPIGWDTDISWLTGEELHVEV
Description: The binding efficiency (Binding %) to various concentrations of protein was determined for each RNA aptamer (2 nM) by a filter binding method and plotted in the figure.

Raf-1 RBD (GST-RBD) [5] = molecular target: T2, Raf-1 RBD (GST-RBD); experiment: EMSA; 1 XL binds 2 GST-RBD; higher activity than 9Ax2; details: tags: GST fusion, expressed in E. coli; 2 per XL dimer), stated; label: 32P 5'-end
Description: as §2, §3

Raf-1 RBD (GST-RBD) [6] = molecular target: T2, Raf-1 RBD (GST-RBD); experiment: EMSA; no shift even at increased GST-RBD; details: tags: GST fusion, expressed in E. coli; 2 per XL dimer), stated; label: 32P 5'-end

T1 sequence (P00573 whole entry): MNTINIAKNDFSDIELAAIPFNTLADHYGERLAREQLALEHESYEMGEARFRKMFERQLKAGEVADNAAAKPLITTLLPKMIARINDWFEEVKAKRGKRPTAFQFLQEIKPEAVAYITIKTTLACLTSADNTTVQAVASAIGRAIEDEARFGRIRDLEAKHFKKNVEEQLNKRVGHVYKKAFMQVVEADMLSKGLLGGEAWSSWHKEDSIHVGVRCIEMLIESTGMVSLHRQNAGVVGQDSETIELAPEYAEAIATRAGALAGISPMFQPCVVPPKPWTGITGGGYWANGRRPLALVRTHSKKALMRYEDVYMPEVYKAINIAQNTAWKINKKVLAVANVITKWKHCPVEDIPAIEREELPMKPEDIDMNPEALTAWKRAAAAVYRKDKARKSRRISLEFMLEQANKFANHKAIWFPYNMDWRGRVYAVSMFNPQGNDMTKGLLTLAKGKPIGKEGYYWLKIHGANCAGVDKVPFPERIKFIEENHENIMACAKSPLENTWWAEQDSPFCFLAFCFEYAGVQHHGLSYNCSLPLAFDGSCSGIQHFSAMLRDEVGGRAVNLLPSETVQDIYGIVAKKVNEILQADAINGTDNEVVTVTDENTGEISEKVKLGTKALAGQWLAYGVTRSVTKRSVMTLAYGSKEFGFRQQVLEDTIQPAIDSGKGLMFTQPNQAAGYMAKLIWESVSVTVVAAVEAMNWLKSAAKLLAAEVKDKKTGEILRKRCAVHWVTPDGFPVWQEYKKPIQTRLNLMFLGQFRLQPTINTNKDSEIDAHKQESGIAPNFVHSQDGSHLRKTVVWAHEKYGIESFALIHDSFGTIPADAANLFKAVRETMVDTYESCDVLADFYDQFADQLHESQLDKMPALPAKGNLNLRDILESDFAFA

Molecule: O=c1[nH]cc(I)cc1[C@@H]1O[C@H](COP(=O)(O)OP(=O)(O)OP(=O)(O)O)[C@@H](O)[C@H]1O [5IyTP, 3-(β-D-ribofuranosyl)-5-iodopyridin-2(1H)-one 5′-triphosphate]
- progress of transcription reaction with the unnatural triphosphate (T7 RNA polymerase [1]): proceeded efficiently
- misincorporated 5Iy, share of the total (T7 RNA polymerase [2]): less than 0.5%
- selectivity of incorporation opposite s in the template (T7 RNA polymerase [2]; s-containing template): ≥ 97%

Molecule: Biotinylated 5-(3-amino-1-propenyl)-3-(β-D -ribofuranosyl)-2-pyridone 5′-triphosphate [Bio-yTP]
- incorporation into RNA opposite s in the template (T7 RNA polymerase [3]): competitively and selectively incorporated opposite s in the template
- efficiency of transcription reaction (T7 RNA polymerase [3]): about 50%
- misincorporation opposite natural nucleotides in the template (T7 RNA polymerase [3]): almost no misincorporation

Molecule: O=c1[nH]cc(C#Cc2ccccc2)cc1[C@@H]1O[C@H](COP(=O)(O)OP(=O)(O)OP(=O)(O)O)[C@@H](O)[C@H]1O [3-(β-D-ribofuranosyl)-5-(2-phenylethynyl)-pyridin-2(1H)-one 5′-triphosphate]
- progress of transcription reaction with the unnatural triphosphate (T7 RNA polymerase [1]): confirmed to proceed

Molecule: Biotinylated 5-(3-amino-1-propynyl)-3-(β-D-ribofuranosyl)-2-pyridone 5′-triphosphate [Bio^2-yTP]
- incorporation into RNA opposite s in the template (T7 RNA polymerase [3]): competitively and selectively incorporated opposite s in the template
- efficiency of transcription reaction (T7 RNA polymerase [3]): about 50%
- misincorporation opposite natural nucleotides in the template (T7 RNA polymerase [3]): no misincorporation

B1: RNA 9Ax2 (tandem 9A, 200 nt) (ssRNA)
RNA: GGGAGUGGAGGAAUUCAUCGAGGCAUAUGUCGACUCCGUCUUCCUUCAAACCAGUUAUAAAUUGGUUUUAGCAUAUGCCUUAGCGACAGCAAGCUUCUGCGGGAGUGGAGGAAUUCAUCGAGGCAUAUGUCGACUCCGUCUUCCUUCAAACCAGUUAUAAAUUGGUUUUAGCAUAUGCCUUAGCGACAGCAAGCUUCUGC
- binding result (Raf-1 RBD (GST-RBD) [4]): binds

B2: RNA 9A (ssRNA)
RNA: GGGAGUGGAGGAAUUCAUCGAGGCAUAUGUCGACUCCGUCUUCCUUCAAACCAGUUAUAAAUUGGUUUUAGCAUAUGCCUUAGCGACAGCAAGCUUCUGC
- binding result (B-Raf RBD (GST-RBD)): binds

B3: RNA XL (UV-crosslinked dimer of 9A(5Iy87)) (ssRNA)
RNA 1: GGGAGUGGAGGAAUUCAUCGAGGCAUAUGUCGACUCCGUCUUCCUUCAAACCAGUUAUAAAUUGGUUUUAGCAUAUGCCUUAGCGACAGCAAGCUUCUGC
RNA 2: GGGAGUGGAGGAAUUCAUCGAGGCAUAUGUCGACUCCGUCUUCCUUCAAACCAGUUAUAAAUUGGUUUUAGCAUAUGCCUUAGCGACAGCAAGCUUCUGC
modifications: 5Iy at position 87, UV-crosslinked dimer
- binding result (Raf-1 RBD (GST-RBD) [5]): binds

B4: RNA OC (ssRNA)
RNA: GGGAGUGGAGGAAUUCAUCGAGGCAUCUGGGAACCCUAUCUUGCUUUUGGUAGCUGUAUUCACCUGUAACAGCAUAUGCCUUAGCGACAGCAAGCUUCUGC
- binding result (Raf-1 RBD (GST-RBD) [6]): no binding
